One compound from publication PMC11022693, “Targeting C21orf58 is a Novel Treatment Strategy of Hepatocellular Carcinoma by Disrupting the Formation of JAK2/C21orf58/STAT3 Complex” (Advanced Science, 2024) can be followed below.

For the assay, the target named is T1, C21orf58 (Homo sapiens, UniProt P58505).
T1 construct: human C21orf58 in pET-21a, expressed in E. coli Rosetta (DE3), Ni-NTA purified, lyophilized
Briefly: 1H NMR of mixed ligand and purified protein. Particulars: deuterated water; mixed and incubated 30 min at room temperature; 600 MHz. In kind it is binding.

T1 sequence (P58505 whole entry): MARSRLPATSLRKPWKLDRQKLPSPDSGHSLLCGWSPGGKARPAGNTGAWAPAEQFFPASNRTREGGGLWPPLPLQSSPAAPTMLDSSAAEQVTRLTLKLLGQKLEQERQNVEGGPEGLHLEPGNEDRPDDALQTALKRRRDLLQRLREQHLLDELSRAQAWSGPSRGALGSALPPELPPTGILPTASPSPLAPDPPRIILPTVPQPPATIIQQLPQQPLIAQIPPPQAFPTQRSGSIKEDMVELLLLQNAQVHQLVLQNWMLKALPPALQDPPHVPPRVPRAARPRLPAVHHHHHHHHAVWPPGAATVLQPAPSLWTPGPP

On to `C=C(C)CNc1ccc(C(C)C(=O)O)cc1` (stereo not shown) [alminoprofen], for which the “1H NMR of mixed ligand and purified protein” value was “H Nuclear Magnetic Resonance Spectra suggested that alminoprofen could bind on the C21orf58 protein”.
